Reference: patent US20240024340A1, “Compositions and Methods For Treating Migraine” (priority 2020, published 2024)
“Also recorded” adds a separate entry of the source.

What was measured:
[1] = test system: BALB/c mice; experiment: Tail suspension test (TST), depression; psilocybin loading dose then psilocybin+CBD+6 MB maintenance
[2] = test system: BALB/c mice; experiment: Elevated plus maze (EPM), anxiety-like behavior
[3] = test system: BALB/c mice; type: in vivo; details: for effect on TST immobility compared to vehicle: Day 22 (FIG. 6B), imipramine 15 mg/kg, psilocybin 5 mg/kg Day 1, or both
Protocol: Imipraime (15 mg/kg) was given 1 hour before tail suspension testing on Day 22. […] For positive control, one group was given imipramine which is known to reduce immobility in TST in stressed mice.
Analysis: Simple comparisons between two groups were measured through inferential means.
Psilocybin loading dose was given 3-weeks prior to behavioral testing and imipramine was given 1-hour before testing on each testing day via Intraperitoneal injection (i.p, 5 ml/kg).

| Compound | immobile posture time in TST ([1]; Day 15, psilocybin loading dose 5 mg/kg on Day 1) | immobility time in TST ([1]; Day 22 (three weeks after 5 mg/kg loading dose of psilocybin), all groups receiving a loading dose) | depression (symptoms) in mouse model ([1]; loading dose psilocybin 5 mg/kg, alone or followed by maintenance psilocybin, CBD and 6 mushroom blend) | percentage of time spent in open space / open arms of the EPM ([2]; Day 14, two weeks after loading dose of 5 mg/kg psilocybin, vs vehicle control, 5 mg/kg) | anxiety (symptoms) in mouse model ([2]; loading dose psilocybin 5 mg/kg, alone or followed by low dose psilocybin, CBD and 6 mushroom blend) | effect on TST immobility compared to vehicle [3] | effect of psilocybin loading dose on anti-depressive properties of imipramine ([3]; psilocybin 5 mg/kg Day 1, imipramine 15 mg/kg one hour before TST on Day 22 or Day 29) |
| --- | --- | --- | --- | --- | --- | --- | --- |
| [3-(2-dimethylaminoethyl)-1H-indol-4-yl] dihydrogen phosphate [psilocybin] | decreased | significantly lower; also recorded: significant decrease | decreased | significantly increased; also recorded: more time | decreased | anti-depressant effect | potentiate |
| CN(C)CCCN1c2ccccc2CCc2ccccc21 [imipramine] |  |  |  |  |  | anti-depressant effect |  |
